Results on 3 compounds are retold here after ChEMBL document CHEMBL6096630, “Enhancing therapeutic efficacy in homologous recombination-proficient pancreatic cancer via the combination of PARP1-PROTAC and a BRD4 inhibitor” (Bioorg Med Chem, 2024).

The source made the active and inactive calls. The calls are words filed in the database; no cut-off is given here.

The test system of data set [1] is PANC-1. As to the kind of experiment: Induction of apoptosis in human PANC-1 cells assessed as viable cells at 0.5 uM incubated for 48 hrs by Annexin V-FITC/PI staining based flow cytometry (reference value: 91.64 %). Type of data set: functional. As to conditions: read-out: Activity. In general terms: In flow cytometry, cells or beads pass a laser one at a time.

The subject of data set [2] is PANC-1. The data set is described as follows: Induction of apoptosis in human PANC-1 cells assessed as early apoptotic cells at 0.12 uM incubated for 48 hrs by Annexin V-FITC/PI staining based flow cytometry (reference value: 1.41 %). The class given is functional.
Data set [3] relates to PANC-1. As to the kind of experiment: Induction of cell cycle arrest in human PANC-1 cells assessed as accumulation at S phase at 0.5 uM incubated for 24 hrs by PI staining based flow cytometry (reference value: 38.94 %). The class given is functional.
In data set [4] the test system is PANC-1. As to the kind of experiment: Induction of apoptosis in human PANC-1 cells assessed as late apoptotic cells at 0.12 uM incubated for 48 hrs by Annexin V-FITC/PI staining based flow cytometry (reference value: 3.87 %). The class given is functional.
In data set [5] the test system is PANC-1. As to the kind of experiment: Induction of cell cycle arrest in human PANC-1 cells assessed as accumulation at S phase at 0.25 uM incubated for 24 hrs by PI staining based flow cytometry (reference value: 38.94 %). Type of data set: functional.
Data set [6] deals with PANC-1. As to the kind of experiment: Induction of cell cycle arrest in human PANC-1 cells assessed as accumulation at G2 phase at 0.12 uM incubated for 24 hrs by PI staining based flow cytometry (reference value: 9.36 %). Type of data set: functional.
In data set [7] the test system is PANC-1. As to the kind of experiment: Induction of cell cycle arrest in human PANC-1 cells assessed as accumulation at G1 phase at 0.12 uM incubated for 24 hrs by PI staining based flow cytometry (reference value: 51.70 %). The class given is functional.
The subject of data set [8] is PANC-1. As to the kind of experiment: Induction of apoptosis in human PANC-1 cells assessed as necrotic cells at 1 uM incubated for 48 hrs by Annexin V-FITC/PI staining based flow cytometry (reference value: 3.09 %). Type of data set: functional.
Data set [9] relates to PANC-1. The data set is described as follows: Antitumor activity against human PANC-1 cells xenografted in BALB/c mouse at 20 mg/kg, ip for 4 weeks administered for 5 days consecutively and 2 days without treatment on every week in presence of OL relative to control. Type of data set: functional. The conditions noted are these: PANC-1, 672 h, read-out: TGI. Background: In xenograft studies the graft and the host belong to different species.

Data set [10] concerns PANC-1. As to the kind of experiment: Induction of DNA damage in human PANC-1 cells assessed as decrease in BRCA1 level at 1 uM in presence of OL by Western blot analysis. Type of data set: functional, cell-based.
Data set [11] is described as follows: Toxicity in BALB/c mouse xenografted with human PANC-1 cells assessed as pathological changes in liver at 20 mg/kg, ip for 4 weeks administered for 5 days consecutively and 2 days without treatment on every week by H and E staining based analysis. The class given is organism-based. As to conditions: in vivo, 672 h.
For data set [12], the system named is PANC-1. As to the kind of experiment: Induction of apoptosis in human PANC-1 cells assessed as late apoptotic cells at 1 uM incubated for 48 hrs in presence of OL by Annexin V-FITC/PI staining based flow cytometry (reference value: 3.87 %). Type of data set: functional.
The nature of data set [13]: Toxicity in BALB/c mouse xenografted with human PANC-1 cells assessed as body weight loss at 20 mg/kg, ip for 4 weeks administered for 5 days consecutively and 2 days without treatment on every week in presence of OL. The class given is organism-based. The conditions noted are these: in vivo, 672 h.
Data set [14] concerns PANC-1. The data set is described as follows: Antitumor activity against human PANC-1 cells xenografted in BALB/c mouse assessed as inhibition of tumor volume at 20 mg/kg, ip for 4 weeks administered for 5 days consecutively and 2 days without treatment on every week in presence of OL. Type of data set: functional, organism-based.
For data set [15], the system named is PANC-1. As to the kind of experiment: Induction of cell cycle arrest in human PANC-1 cells assessed as decrease in cyclin D1 level at 2 uM incubated for 24 hrs in presence of JQ1 by […]. Type of data set: functional.
In data set [16] the test system is PANC-1. The data set is described as follows: Anti-invasive activity in human PANC-1 cells assessed as increase in invasion inhibition at 2 uM in presence of JQ1 incubated for 48 hrs by Matrigel assay relative to combination of OL/JQ1. Type of data set: functional. Set-up: scale not given: the % may be the effect or the level left.
The subject of data set [17] is PANC-1. As to the kind of experiment: Induction of DNA damage in human PANC-1 cells assessed as increase in gamma-H2AX level at 2 uM in presence of JQ1 by immunofluorescence based analysis. Type of data set: functional, cell-based.
Data set [18] has as its target T1, Protein cereblon/Poly [ADP-ribose] polymerase 1 (Homo sapiens, UniProt P09874+Q96SW2). The data set is described as follows: PROTAC activity at CRBN/PARP1 in human BXPC-3 cells assessed as induction of PARP1 degradation incubated for 24 hrs by Western blot analysis. Type of data set: cell-based. (In general: A western blot detects proteins with antibodies after separation by electrophoresis.)

Data set [19] deals with T1, Protein cereblon/Poly [ADP-ribose] polymerase 1. As to the kind of experiment: PROTAC activity at CRBN/PARP1 in human PANC-1 cells assessed as induction of PARP1 degradation incubated for 24 hrs by Western blot analysis relative to control. The class given is cell-based.
Target sequence in this assay (P09874 2-1014 limits assumed): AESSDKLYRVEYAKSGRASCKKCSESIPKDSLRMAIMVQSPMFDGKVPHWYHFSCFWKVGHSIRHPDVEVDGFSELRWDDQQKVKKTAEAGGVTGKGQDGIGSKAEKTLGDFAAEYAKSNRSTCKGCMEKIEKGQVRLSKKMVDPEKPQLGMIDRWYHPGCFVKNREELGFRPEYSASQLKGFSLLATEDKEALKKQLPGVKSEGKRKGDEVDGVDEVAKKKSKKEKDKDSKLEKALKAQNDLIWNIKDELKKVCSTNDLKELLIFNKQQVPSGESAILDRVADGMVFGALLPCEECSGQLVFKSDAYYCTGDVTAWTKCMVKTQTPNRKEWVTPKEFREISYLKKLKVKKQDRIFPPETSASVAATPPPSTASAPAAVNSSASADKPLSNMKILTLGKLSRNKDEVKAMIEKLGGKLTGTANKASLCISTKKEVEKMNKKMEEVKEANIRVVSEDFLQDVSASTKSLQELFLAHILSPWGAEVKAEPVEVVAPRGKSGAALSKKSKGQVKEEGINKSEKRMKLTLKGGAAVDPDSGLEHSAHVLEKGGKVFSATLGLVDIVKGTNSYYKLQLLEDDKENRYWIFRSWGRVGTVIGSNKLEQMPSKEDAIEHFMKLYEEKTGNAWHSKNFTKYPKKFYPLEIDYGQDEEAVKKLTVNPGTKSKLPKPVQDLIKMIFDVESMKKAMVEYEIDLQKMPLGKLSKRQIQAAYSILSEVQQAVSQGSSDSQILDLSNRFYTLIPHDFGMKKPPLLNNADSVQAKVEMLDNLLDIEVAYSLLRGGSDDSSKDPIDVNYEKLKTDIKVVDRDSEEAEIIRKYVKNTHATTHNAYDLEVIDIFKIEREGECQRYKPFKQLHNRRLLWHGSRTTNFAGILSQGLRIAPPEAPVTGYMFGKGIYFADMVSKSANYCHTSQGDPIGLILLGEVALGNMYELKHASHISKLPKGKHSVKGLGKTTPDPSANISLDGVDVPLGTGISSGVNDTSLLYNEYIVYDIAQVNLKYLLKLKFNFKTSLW
Target sequence in this assay (Q96SW2 whole entry partner): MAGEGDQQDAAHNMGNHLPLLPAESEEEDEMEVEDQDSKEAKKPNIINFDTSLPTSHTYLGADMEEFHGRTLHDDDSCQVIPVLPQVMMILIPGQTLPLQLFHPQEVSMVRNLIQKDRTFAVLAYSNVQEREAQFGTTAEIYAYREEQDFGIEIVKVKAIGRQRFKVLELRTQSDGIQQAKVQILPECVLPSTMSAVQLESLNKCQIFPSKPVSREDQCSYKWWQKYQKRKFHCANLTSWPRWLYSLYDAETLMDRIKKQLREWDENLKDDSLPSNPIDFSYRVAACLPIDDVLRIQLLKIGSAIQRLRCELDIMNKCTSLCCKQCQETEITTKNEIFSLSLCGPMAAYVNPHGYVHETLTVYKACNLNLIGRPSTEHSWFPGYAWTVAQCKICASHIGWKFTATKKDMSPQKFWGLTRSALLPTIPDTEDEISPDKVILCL
For data set [20], the system named is PANC-1. As to the kind of experiment: Induction of apoptosis in human PANC-1 cells at 2 uM incubated for 48 hrs by Annexin V-FITC/PI staining based flow cytometry relative to control. The class given is functional.

On to `Cc1sc2c(c1C)C(c1ccc(Cl)cc1)=N[C@@H](CC(=O)OC(C)(C)C)c1nnc(C)n1-2`, for which, in the data set with PANC-1 [1], the viability at 0.5 µM was determined as 82.8%. Further, the Activity with PANC-1 [2] was 2.83%; in the data set on PANC-1 [3], 35.66%; in the data set with PANC-1 [4] it was 3.99%; with PANC-1 [5], 38.89%; in the data set with PANC-1 [6], 13.25%; in the data set with PANC-1 [7], 46.24%. In addition, the Activity with PANC-1 [8] was 4.54%; in data set [11], “Non-toxic”; with PANC-1 [12] it was 21.52%; in data set [13], “Toxic”. Further, the inhibition in vivo at 20 mg/kg in the data set on PANC-1 [9] stood at 80.7%. In the data set with PANC-1 [10], the result was Active. Besides, the inhibition result in the data set on PANC-1 [14] was “Active”.

Broadly, the DC50 is the concentration giving 50% degradation. The term Emax denotes the maximal effect, on the per cent scale that the assay sets. Turning to `O=C1CCC(N2C(=O)c3cccc(NC(=O)CNCCCCCCCCCCC(=O)N4CCN(C(=O)c5cc(Cc6n[nH]c(=O)c7ccccc67)ccc5F)CC4)c3C2=O)C(=O)N1` (stereo unspecified), the result with PANC-1 [15] and with PANC-1 [17] was Active. The Activity in the data set with PANC-1 [16] was about 11%; in data set [18] (dose <= 10.0 µM), “Dose-dependent-effect”. For the same compound, in data set [18], the DC50 stood at 4.74 nM. In data set [19], the Emax is over 95%.

With `O=C(c1cc(Cc2n[nH]c(=O)c3ccccc23)ccc1F)N1CCN(C(=O)C2CC2)CC1` [OLAPARIB], the Activity with PANC-1 [20] is reported as 8.1%.
